pIC50: −log10 of the molar value. Read-outs that look alike come from different tables or passages of the source.
How the values were obtained:
ErbB2 (h) = ErbB2 (h) (Homo sapiens, UniProt P04626); test: ErbB2 human kinase assay (filter); type: biochemical; conditions: read-out: C13 ERBB 2 Filter Score
Method: (§1) Similarly to the above the in vitro inhibition of two other kinases, i.e. human ErbB2 and human ErbB4 was tested for some of the compounds according to the invention.
(§2) In a final reaction volume of 25 μl, ErbB2 (h) (5-10 mU) is incubated with 8 mM MOPS pH 7.0, 0.2 mM EDTA, 10 mM MnCl2, 0.1 mg/ml poly(Glu, Tyr) 4:1, 10 mM MgAcetate and [γ-33P-ATP] (specific activity approx. 500 cpm/pmol, concentration as required). The reaction is initiated by the addition of the MgATP mix. After incubation for 40 minutes at room temperature, the reaction is stopped by the addition of 5 μl of a 3% phosphoric acid solution. 10 μl of the reaction is then spotted onto a Filtermat A and washed three times for 5 minutes in 75 mM phosphoric acid and once in methanol prior to drying and scintillation counting.

ErbB4 (h) = ErbB4 (h) (Homo sapiens, UniProt Q15303); test: ErbB4 human kinase assay (filter); type: biochemical; conditions: read-out: C14 ERBB 4 Filter Score
Sequence of ErbB4 (h) (Q15303 26-1308): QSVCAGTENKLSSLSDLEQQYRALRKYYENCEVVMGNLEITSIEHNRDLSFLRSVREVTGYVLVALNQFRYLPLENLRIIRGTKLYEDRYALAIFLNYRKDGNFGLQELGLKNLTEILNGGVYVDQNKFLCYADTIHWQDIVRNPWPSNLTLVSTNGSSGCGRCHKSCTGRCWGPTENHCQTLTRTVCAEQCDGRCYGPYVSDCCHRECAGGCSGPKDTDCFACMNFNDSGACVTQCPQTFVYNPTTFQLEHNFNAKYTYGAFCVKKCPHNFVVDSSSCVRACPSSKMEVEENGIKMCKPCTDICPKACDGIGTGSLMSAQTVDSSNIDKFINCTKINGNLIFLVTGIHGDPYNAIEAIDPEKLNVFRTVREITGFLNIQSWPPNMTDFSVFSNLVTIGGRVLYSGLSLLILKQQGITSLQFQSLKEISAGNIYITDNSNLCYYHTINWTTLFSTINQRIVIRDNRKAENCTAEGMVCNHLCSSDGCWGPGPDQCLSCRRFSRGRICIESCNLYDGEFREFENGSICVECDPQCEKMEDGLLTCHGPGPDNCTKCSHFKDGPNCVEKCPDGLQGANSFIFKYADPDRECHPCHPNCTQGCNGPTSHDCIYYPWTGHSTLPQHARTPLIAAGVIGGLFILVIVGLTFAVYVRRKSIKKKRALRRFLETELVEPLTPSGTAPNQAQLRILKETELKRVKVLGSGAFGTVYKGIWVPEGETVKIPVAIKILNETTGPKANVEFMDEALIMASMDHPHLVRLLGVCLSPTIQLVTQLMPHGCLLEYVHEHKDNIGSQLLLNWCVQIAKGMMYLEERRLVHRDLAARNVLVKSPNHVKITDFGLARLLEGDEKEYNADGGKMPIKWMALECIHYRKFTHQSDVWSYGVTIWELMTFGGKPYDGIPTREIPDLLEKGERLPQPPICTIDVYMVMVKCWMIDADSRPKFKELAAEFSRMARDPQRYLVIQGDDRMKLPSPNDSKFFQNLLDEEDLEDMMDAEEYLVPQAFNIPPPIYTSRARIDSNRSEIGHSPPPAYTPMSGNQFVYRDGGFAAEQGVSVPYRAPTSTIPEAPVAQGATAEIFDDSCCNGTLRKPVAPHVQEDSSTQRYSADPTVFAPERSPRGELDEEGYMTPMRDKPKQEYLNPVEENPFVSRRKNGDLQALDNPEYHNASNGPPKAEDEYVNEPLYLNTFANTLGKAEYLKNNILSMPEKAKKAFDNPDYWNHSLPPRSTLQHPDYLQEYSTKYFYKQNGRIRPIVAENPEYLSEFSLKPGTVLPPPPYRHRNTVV
Method: as §1
as §2, with “ErbB4” for “ErbB2”

Flt3 (h) = Flt3 (h) (Homo sapiens, UniProt P36888); test: Flt3 human kinase assay (glass-fiber filter); type: biochemical; conditions: test concentration of 10^−6M; read-out: C6 score (inhibition of Flt3 human)
Sequence of Flt3 (h) (P36888 27-993): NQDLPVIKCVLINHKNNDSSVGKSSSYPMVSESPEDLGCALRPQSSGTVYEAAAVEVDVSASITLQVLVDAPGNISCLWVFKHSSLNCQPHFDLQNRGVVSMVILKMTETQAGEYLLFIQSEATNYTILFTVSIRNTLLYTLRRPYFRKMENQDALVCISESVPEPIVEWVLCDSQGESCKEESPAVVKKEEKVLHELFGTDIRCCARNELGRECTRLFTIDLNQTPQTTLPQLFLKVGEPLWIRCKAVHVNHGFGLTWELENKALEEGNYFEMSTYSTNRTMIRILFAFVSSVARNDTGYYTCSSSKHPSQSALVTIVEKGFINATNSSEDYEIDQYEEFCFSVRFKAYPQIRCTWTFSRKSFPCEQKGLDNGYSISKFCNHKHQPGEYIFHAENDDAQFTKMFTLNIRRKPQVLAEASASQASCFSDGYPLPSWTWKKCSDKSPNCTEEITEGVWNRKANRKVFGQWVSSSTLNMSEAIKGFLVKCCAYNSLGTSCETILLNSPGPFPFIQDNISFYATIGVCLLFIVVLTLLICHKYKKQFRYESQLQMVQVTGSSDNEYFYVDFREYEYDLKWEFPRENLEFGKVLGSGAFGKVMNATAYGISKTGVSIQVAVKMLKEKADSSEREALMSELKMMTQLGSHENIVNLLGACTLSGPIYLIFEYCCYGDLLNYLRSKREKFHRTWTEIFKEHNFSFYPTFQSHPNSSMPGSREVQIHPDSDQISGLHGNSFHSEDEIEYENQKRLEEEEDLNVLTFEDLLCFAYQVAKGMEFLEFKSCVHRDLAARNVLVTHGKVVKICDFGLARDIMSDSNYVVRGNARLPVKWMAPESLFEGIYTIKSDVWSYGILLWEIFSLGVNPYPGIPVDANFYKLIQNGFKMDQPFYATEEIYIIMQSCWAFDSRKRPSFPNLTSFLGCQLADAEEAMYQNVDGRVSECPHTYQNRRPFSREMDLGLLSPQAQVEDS
Method in brief: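 Human Flt3 (5-10 mU) with 50 μM peptide substrate in 8 mM MOPS pH 7.0, 0.2 mM EDTA, 10 mM Mg acetate and [γ-33P]ATP (concentration as required), 40 min at room temperature. Reaction stopped with phosphoric acid; substrate 33P incorporation counted on P30 glass-fiber filter.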

EGFR-kinase domain = molecular target: T1, EGFR-kinase domain (Homo sapiens, UniProt P00533); test: In vitro inhibition of EGFR (Flash Plate assay); type: biochemical; conditions: full dose response 1.10^−6M to 1.10^−10M, read-out: C12 EGFR flash Score
T1 construct: 0.5 μg EGFR-kinase domain/well
T1 sequence (P00533 712-979 limits assumed): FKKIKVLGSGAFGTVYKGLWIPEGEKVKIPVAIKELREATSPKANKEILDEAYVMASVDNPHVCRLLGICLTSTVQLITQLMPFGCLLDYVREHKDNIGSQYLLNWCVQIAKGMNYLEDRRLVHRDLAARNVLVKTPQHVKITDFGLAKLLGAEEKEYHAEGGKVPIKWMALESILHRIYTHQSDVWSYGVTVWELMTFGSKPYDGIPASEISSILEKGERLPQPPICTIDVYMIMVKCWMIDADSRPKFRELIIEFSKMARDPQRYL
Method: The in vitro inhibition of EGFR was assessed using either the Flash Plate technology or the glass-fiber filter technology as described by Davies, S. P. et al., Biochem J. (2000), 351; p. 95-105. The Flash Plate technology is generally described by B. A. Brown et al. in High Throughput Screening (1997), p. 317-328. Editor(s): Devlin, John P. Publisher: Dekker, New York, N.Y.
In the Flash Plate EGFR kinase reaction assay, a kinase substrate consisting of biotinylated poly(L-glutamic acid-L-tyrosine) (poly(GT)biotin), is incubated with the aforementioned protein in the presence of (^33P) radiolabeled ATP. (^33P) phosphorylation of the substrate is subsequently measured as light energy emitted using a streptavidin-coated Flash Plate (PerkinElmer Life Sciences) by trapping and quantifying the binding of the biotin tagged and radiolabeled substrate.
The EGFR kinase reaction is performed at 30° C. for 60 minutes in a 96-well microtiter FlashPlate (PerkinElmer Life Sciences). For each of the tested compounds a full dose response 1.10^−6M to 1.10^−10M has been performed. IRESSA® and Tarceva™ (erlotinib) were used as reference compounds. The 100 μl reaction volume contains 54.5 mM TrisHCl pH 8.0, 10 mM MgCl2, 100 μM Na3VO4, 5.0 μM unlabeled ATP, 1 mM DTT, 0.009% BSA, 0.8 μCi AT^33P, 0.35 μg/well poly(GT)biotin and 0.5 μg EGFR-kinase domain/well.
The reaction is stopped by aspirating the reaction mixture and washing the plate 3× with 200 μl wash/stop buffer (PBS+100 mM EDTA). After the final wash step 200 μl of wash/stop buffer was added to each well and the amount of phosphorylated (^33P) Poly(GT)biotin determined by counting (30 sec/well) in a microtiterplate scintillation counter.

cSRC (h) = cSRC (h) (Homo sapiens, UniProt P12931); test: cSRC human kinase assay (glass-fiber filter); type: biochemical; conditions: test concentration of 10^−6M; read-out: C3 score (inhibition of cSRC human)
Method in brief: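 Radiometric assay: kinase and substrate are incubated with [33P]ATP, with the reaction started by MgATP mix. The reaction is spotted on P30 filtermat, washed in 75 mM phosphoric acid and methanol, and the bound 33P is measured by scintillation counting.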

Abl (h) = Abl (h) (Homo sapiens, UniProt P00519); test: Abl human kinase assay (glass-fiber filter); type: biochemical; conditions: test concentration of 10^−6M; read-out: C1 score (inhibition of Abl human)
Fes (h) = Fes (h) (Homo sapiens, UniProt P07332); test: Fes human kinase assay (glass-fiber filter); type: biochemical; conditions: test concentration of 10^−6M; read-out: C4 score (inhibition of Fes human)
Method in brief: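 Human Fes (5–10 mU) was incubated with 0.1 mg/ml poly(Glu,Tyr) 4:1 in 8 mM MOPS pH 7.0, 0.2 mM EDTA, 10 mM Mg acetate and [γ-33P]ATP for 40 min at room temperature. The reaction was stopped with phosphoric acid, and substrate phosphorylation was quantified by filter binding and scintillation counting.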

Yes (h) = Yes (h) (Homo sapiens, UniProt P07947); test: Yes human kinase assay (glass-fiber filter); type: biochemical; conditions: test concentration of 10^−6M; read-out: C11 score (inhibition of Yes human)
Sequence of Yes (h) (P07947 whole entry): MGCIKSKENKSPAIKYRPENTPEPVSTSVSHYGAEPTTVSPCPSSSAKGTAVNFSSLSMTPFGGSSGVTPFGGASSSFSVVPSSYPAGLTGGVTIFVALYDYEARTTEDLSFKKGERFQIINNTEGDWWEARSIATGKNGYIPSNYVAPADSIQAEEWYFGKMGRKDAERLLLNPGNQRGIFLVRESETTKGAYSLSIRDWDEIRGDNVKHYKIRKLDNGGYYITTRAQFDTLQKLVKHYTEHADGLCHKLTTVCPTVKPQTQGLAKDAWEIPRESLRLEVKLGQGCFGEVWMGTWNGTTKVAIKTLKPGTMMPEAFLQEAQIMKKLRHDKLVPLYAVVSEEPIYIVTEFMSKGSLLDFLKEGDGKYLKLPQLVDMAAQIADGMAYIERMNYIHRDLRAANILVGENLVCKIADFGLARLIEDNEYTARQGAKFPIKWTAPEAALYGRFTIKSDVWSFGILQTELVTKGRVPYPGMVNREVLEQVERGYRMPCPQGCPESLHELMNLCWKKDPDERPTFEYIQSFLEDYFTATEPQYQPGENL
Method in brief: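 Yes (h) (5-10 mU) with 0.1 mg/ml poly(Glu, Tyr) 4:1 in 8 mM MOPS pH 7.0, 0.2 mM EDTA, 10 mM MgAcetate and [γ-^33P-ATP], 40 minutes at room temperature. Stopped with phosphoric acid; substrate-bound ^33P counted on glass-fiber filter by scintillation.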

Lck (h) = Lck (h) (Homo sapiens, UniProt P06239); test: Lck human kinase assay (glass-fiber filter); type: biochemical; conditions: test concentration of 10^−6M; read-out: C9 score (inhibition of Lck human)
Sequence of Lck (h) (P06239 whole entry): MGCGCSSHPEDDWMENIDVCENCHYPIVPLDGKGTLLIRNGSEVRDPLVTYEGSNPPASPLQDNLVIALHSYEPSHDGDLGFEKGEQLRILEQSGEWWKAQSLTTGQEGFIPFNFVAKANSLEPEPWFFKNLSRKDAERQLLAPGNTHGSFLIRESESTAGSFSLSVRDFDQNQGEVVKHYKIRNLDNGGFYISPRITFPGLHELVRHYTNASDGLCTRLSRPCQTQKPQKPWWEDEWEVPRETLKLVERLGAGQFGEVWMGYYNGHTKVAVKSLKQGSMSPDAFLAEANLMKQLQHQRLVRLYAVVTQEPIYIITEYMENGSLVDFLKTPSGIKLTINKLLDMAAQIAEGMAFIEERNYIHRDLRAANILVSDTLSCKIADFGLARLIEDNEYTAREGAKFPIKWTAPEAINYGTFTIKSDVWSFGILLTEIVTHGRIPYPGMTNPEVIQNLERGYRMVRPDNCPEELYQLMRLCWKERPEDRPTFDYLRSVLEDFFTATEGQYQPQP
Method in brief: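 Kinase activity measured as transfer of (^33P) from radiolabeled MgATP to substrate, captured on P30 glass-fiber filtermat, washed in 75 mM phosphoric acid and methanol, then scintillation counted.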

Lyn (h) = Lyn (h) (Homo sapiens, UniProt P07948); test: Lyn human kinase assay (glass-fiber filter); type: biochemical; conditions: test concentration of 10^−6M; read-out: C10 score (inhibition of Lyn human)
Method in brief: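 Human Lyn (5-10 mU) phosphorylating poly(Glu,Tyr) 4:1 at 0.1 mg/ml with [γ-33P]ATP (concentration as required) in 50 mM Tris pH 7.5, 10 mM Mg acetate, 40 min at room temperature. Stopped with phosphoric acid; substrate-bound radioactivity counted on glass-fibre filter.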

Fms (h) = Fms (h) (Homo sapiens, UniProt P07333); test: Fms human kinase assay (glass-fiber filter); type: biochemical; conditions: test concentration of 10^−6M; read-out: C7 score (inhibition of Fms human)
Method in brief: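 Radiometric filter-binding assay: Fms (5-10 mU) with 250 μM peptide substrate and [γ-33P]ATP in 8 mM MOPS pH 7.0, 10 mM Mg acetate, 40 min at room temperature. Reaction stopped with phosphoric acid; substrate-bound 33P counted on P30 filtermat.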

Sequence of ErbB2 (h) (P04626 23-1255): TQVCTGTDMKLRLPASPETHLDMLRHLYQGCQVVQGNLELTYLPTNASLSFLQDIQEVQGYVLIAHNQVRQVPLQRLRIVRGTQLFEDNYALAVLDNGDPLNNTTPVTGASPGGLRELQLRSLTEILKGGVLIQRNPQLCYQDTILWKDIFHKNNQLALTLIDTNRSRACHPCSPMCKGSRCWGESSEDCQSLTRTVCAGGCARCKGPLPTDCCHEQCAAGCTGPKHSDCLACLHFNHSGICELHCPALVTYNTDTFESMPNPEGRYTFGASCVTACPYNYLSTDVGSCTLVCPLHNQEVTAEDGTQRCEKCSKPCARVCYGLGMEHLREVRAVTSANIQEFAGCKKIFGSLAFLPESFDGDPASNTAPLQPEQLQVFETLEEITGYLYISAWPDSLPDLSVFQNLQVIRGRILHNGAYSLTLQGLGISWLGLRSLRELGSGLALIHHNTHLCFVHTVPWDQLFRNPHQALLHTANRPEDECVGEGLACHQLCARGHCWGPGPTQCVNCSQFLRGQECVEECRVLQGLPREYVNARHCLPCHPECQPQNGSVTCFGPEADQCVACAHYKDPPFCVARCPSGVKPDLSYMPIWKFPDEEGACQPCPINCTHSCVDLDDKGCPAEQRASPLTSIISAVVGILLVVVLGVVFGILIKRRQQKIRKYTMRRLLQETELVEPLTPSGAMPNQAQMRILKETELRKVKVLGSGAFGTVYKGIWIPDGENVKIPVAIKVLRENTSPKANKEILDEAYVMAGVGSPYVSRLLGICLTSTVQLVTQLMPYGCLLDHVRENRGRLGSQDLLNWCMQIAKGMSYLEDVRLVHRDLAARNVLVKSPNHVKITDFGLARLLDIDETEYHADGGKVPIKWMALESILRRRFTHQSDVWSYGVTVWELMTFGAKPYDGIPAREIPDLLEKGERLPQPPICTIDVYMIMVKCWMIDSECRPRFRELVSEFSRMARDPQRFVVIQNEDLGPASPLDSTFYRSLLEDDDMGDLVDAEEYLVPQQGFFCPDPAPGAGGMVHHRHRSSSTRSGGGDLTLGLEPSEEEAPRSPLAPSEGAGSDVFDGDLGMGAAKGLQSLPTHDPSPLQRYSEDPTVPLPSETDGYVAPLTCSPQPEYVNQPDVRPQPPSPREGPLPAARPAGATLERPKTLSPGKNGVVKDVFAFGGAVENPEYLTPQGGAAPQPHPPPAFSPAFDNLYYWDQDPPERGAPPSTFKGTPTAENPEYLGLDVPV

| SMILES | pIC50 (ErbB2 (h)) | pIC50 (ErbB4 (h)) | pIC50 (EGFR-kinase domain) | further results |
| --- | --- | --- | --- | --- |
| CCN1CCNC(=O)C(CCCCN(C)C)NC(=O)CN(C)Cc2cccc(c2)Nc2cc(ncn2)Nc2cccc(c2)C1 (centres unmarked) [Compound 153] | 5.00 to 6.00 | – | – | – |
| O=C1CN2CCN(CC2)Cc2cccc(c2)Nc2cc(ncn2)Nc2cccc(c2)CCN1 [Compound 164] | 5.00 to 6.00 | > 6.00 | – | – |
| N#Cc1cnc2nc1Nc1cccc(c1)C(=O)NCC(=O)NCc1cccc(c1)N2 [Compound 5, 2,4,8,15,18,26-hexaazatetracyclo[18.3.1.1˜3,7˜.1˜9,13˜]hexacosa-1(24),3,5,7(26),9,11,13(25),20,22-nonaene-6-carbonitrile, 14,17-dioxo-] | – | – | – | inhibition at 1 µM (Flt3 (h)): 10 to 30%; ring closure, yield of all isomers (from N#Cc1cnc(Nc2cccc(CNC(=O)CN)c2)nc1Nc1cccc(C(=O)O)c1, amide bond, HBTU, DMF, 22.5 mM, 25.0 °C, 3.0 h): 14% |
| CN(C)CCCCC1NC(=O)CN(C)Cc2cccc(c2)Nc2cc(ncn2)Nc2cccc(c2)CN2CCN(CC2)C1=O (centres unmarked) [Compound 159] | 5.00 to 6.00 | – | > 6.00 | – |
| CN(C)CCCCC1NC(=O)CN(C)Cc2cccc(c2)Nc2cc(ncn2)Nc2cccc(c2)CNC1=O (centres unmarked) [Compound 148] | 5.00 to 6.00 | 5.00 to 6.00 | > 6.00 | – |
| COCCOc1ccc2cc1OCCCCCN(C)Cc1cc(F)c(Cl)cc1Nc1cc(ncn1)N2 | – | – | – | ring closure, yield of all isomers (from COCCOc1ccc(Nc2cc(Nc3cc(Cl)c(F)cc3CN(C)CCCCCO)ncn2)cc1O, ether bond, 1,1'-(azodicarbonyl)dipiperidine (ADDP)/tributylphosphine, THF, 28.6 mM, 25.0 °C, 64.0 h): 44% |
| O=C1CN2CCN(CC2)Cc2cccc(c2)Nc2cc(ncn2)Nc2cccc(c2)OCCCCCN1 [Compound 112] | > 6.00 | > 6.00 | > 6.00 | – |
| COc1ccc2cc1OCCNC(=O)C(Cc1ccc(C(F)(F)F)cc1)NC(=O)CN(C)Cc1cccc(c1)Nc1cc(ncn1)N2 (centres unmarked) [Compound 114] | 5.00 to 6.00 | – | > 6.00 | – |
| CCN1CCNC(=O)C(Cc2ccc(C(F)(F)F)cc2)NC(=O)CN(C)Cc2cccc(c2)Nc2cc(ncn2)Nc2cccc(c2)C1 (centres unmarked) [Compound 156] | 5.00 to 6.00 | > 6.00 | > 6.00 | – |
| CCN1CCNC(=O)C(CC(C)C)NC(=O)CN(C)Cc2cccc(c2)Nc2cc(ncn2)Nc2cccc(c2)C1 (centres unmarked) [Compound 154] | 5.00 to 6.00 | – | 5.00 to 6.00 | – |
| COc1ccc2cc1OCCNC(=O)C(Cc1ccccc1)NCc1cccc(c1)Nc1cc(ncn1)N2 (centres unmarked) | – | – | – | ring closure, yield of all isomers (from COc1ccc(Nc2cc(Nc3cccc(CNC(Cc4ccccc4)C(=O)O)c3)ncn2)cc1OCCN, amide bond, HBTU, DMF, 3.85 mM, 1.0 h): 14% |
| CCN1CCNC(=O)COc2cccc(c2)Nc2cc(ncn2)Nc2cccc(c2)C1 [Compound 161] | 5.00 to 6.00 | > 6.00 | > 6.00 | – |
| COc1ccc2cc1OCCCNC(=O)CCN1CCC(CC1)N(C)Cc1ccc(Cl)c(c1)Nc1cc(ncn1)N2 [Compound 216] | – | 5.00 to 6.00 | – | – |
| CC(C)CC1NC(=O)CN(C)Cc2cccc(c2)Nc2cc(ncn2)Nc2cccc(c2)CNC1=O (centres unmarked) [Compound 149] | 5.00 to 6.00 | > 6.00 | > 6.00 | – |
| O=C1COc2cccc(c2)Nc2cc(ncn2)Nc2cccc(c2)CCN1 [Compound 160] | 5.00 to 6.00 | 5.00 to 6.00 | > 6.00 | – |
| COc1ccc2cc1OCCNC(=O)COc1cccc(c1)Nc1cc(ncn1)N2 [Compound 162] | 5.00 to 6.00 | 5.00 to 6.00 | > 6.00 | – |
| C#CCC1NC(=O)CN(C)Cc2cccc(c2)Nc2cc(ncn2)Nc2cccc(c2)CNC1=O (centres unmarked) [Compound 150] | > 6.00 | > 6.00 | > 6.00 | – |
| CN1CC(=O)N2CCC2C(=O)NCc2cccc(c2)Nc2cc(ncn2)Nc2cccc(c2)C1 (centres unmarked) [Compound 151] | > 6.00 | > 6.00 | > 6.00 | – |
| O=C1COc2cccc(c2)Nc2nccc(n2)Nc2cccc(c2)OCCCCN1 [Compound 4, 14,22-dioxa-2,4,8,19,29-pentaazatetracyclo[21.3.1.1˜3,7˜.1˜9,13˜]nonacosa-1(27),3,5,7(29),9,11,13(28),23,25-nonaen-20-one] | – | – | – | inhibition at 1 µM (Flt3 (h)): > 80%; inhibition at 1 µM (cSRC (h)): 30 to 60%; inhibition at 1 µM (Abl (h)): 10 to 30%; inhibition at 1 µM (Fes (h)): 30 to 60%; inhibition at 1 µM (Yes (h)): 30 to 60%; inhibition at 1 µM (Lck (h)): 30 to 60%; ring closure, yield of all isomers (from NCCCCOc1cccc(Nc2ccnc(Nc3cccc(OCC(=O)O)c3)n2)c1, amide bond, HBTU, DMF, 7.67 mM, 25.0 °C, 2.0 h): 9%; inhibition at 1 µM (Lyn (h)): 10 to 30%; inhibition at 1 µM (Fms (h)): 60 to 80% |
| COc1ccc2cc1OCCNC(=O)C1CN(CCO1)C(=O)CN(C)Cc1cccc(c1)Nc1cc(ncn1)N2 (racemic) [Compound 158] | 5.00 to 6.00 | – | > 6.00 | – |
| O=C1COc2cccc(c2)Nc2cc(ncn2)Nc2cccc(c2)OCCCCCN1 [Compound 163] | > 6.00 | – | – | – |
| CN1CC(=O)NC(CCc2ccccc2)C(=O)NCc2cccc(c2)Nc2cc(ncn2)Nc2cccc(c2)C1 (centres unmarked) [Compound 152] | > 6.00 | > 6.00 | > 6.00 | – |

From patent US8148388B2, “2,4 (4,6) pyrimidine derivatives” (Janssen Pharmaceutica, N.V., priority 2004, dated 2012)
